# Test results: patent US4791113A, “Mitomycin derivatives as antileukemia agents” (Kyowa Hakko Kogyo Kabushiki Kaisha, priority 1986, dated 1988)
# Experiments:
# [1] = tested on: Sarcoma 180 solid tumour; assay type: in vivo, ddy mouse; conditions: C.I.=(LD50)/(ED50), ED50 = dose at T/C=0.5, i.v. (tail vein), 7 days
# Excerpt: (§1) In this table, C.I. denotes chemotherapeutic index, calculated as C.I.=(LD50)/(ED50), wherein LD50 denotes the value of acute toxicity, and ED50 denotes the dose of a sample which is capable of reducing the volume of Sarcoma 180 solid tumour to 50% of the corresponding volume of the solid tumour of untreated group.
# (§2) The test compound was abdominally administered once to ddy mice, each group consisting of 5 animals.
# (§3) 5×10^6 cells of Sarcoma 180 solid tumour were abdominally implanted into a ddy mouse. 7 days after this, the cells were collected from the ascites fluid. The cells were washed once with physiological saline under sterile conditions and suspended in physiological saline to obtain a cell suspension containing 5×10^7 cells/ml of which 0.1 ml was implanted into a ddy male mouse (body weight 20±2 g) under the skin of the right armpit. The test compound was dissolved in physiological saline or the same solution containing Tween 80. 24 hours after implantation of the tumour cells, 0.1-0.2 ml of the solution containing the test compound was administered to the tail vein of each animal in the test group consisting of 5 animals. 7 days after the implantation, the major axis (a) and minor axis (b) of the tumour were measured to calculate the volume of the tumour as "a"×"b^2 "/2. The antitumour effect was indicated by T/C which is the ratio of the tumour volume in the test animals to the corresponding volume of the control (untreated) animals.
# (§4) T/C ratios and the dose were respectively plotted on the ordinate using an arithmetic scale and on the abscissa using a logarithmic scale, the relationship between the dosage and the T/C ratio being converted to a straight line by the least squares method. From the straight tropic line thus-obtained, the dosage corresponding to a T/C=0.5 viz. ED50 was determined.
# [2] = tested on: Hela S3 cultured cells; assay: Effects upon Hela S3 cultured cells; assay type: cell-based; conditions: Homo sapiens, HeLa S3, 72 h
# Procedure: Table 3 indicates the effects of typical Compounds (I) against Hela S3 culture cells. In this table, IC50 denotes the concentration of the test compound capable of reducing the number of cells to 50% the number of untreated cells.
# Cultured cells of Hela S3 were added to a MEM medium containing 10% (V/V) of bovine fetal serum and […] of glutamine to obtain a cell suspension of 3×10^4 cells/ml. The cell suspension was poured into each well (1 ml/well) of a 24 well-multiplate for culturing at 37° C. in an incubator containing carbon dioxide (5%) and air (95%). After 24 hours, samples were dissolved or suspended in PBS, ethanol or dimethylsulfoxide and added to the medium at different concentrations, followed by culturing at 37° C. for 72 hours in the same incubator. An aspirator was used to collect the medium from each well. The surface of each medium was washed by adding PBS (1 ml) gently, and then PBS was sucked out. PBS containing trypsin (0.05%) and EDTA (0.02%) was poured into each well. After pipetting, the number of cells in each suspension was counted by the use of a microcell counter (commercial product of Toa Iyo Denshi K.K., Japan). By reference to a curve showing the concentration vs. the number of cells, the IC50 (concentration of sample capable of reducing the number of cells to 50% of the number of control untreated cells) was measured.
# [3] = in vivo; conditions: mouse, ip, single abdominal administration, ddy mice, 14 days, Behrens-Korber's method
# Excerpt: as §1, §2
# [4] = in vivo; parameters: species or system mice (ddy strain); conditions: mouse, ip, ratio of dose reducing peripheral leucocytes to 4000 (per mm^3; i.p., 4 days) to ED50 (Sarcoma 180), read-out: (WBC4000)/(ED50)
# Excerpt: as §1, §3, §4
# Sarcoma 180 solid tumour cells (5×10^6) were subcutaneously implanted under the skin of the right armpit of each mouse (body weight 20±2 g) of a group consisting of 5 male mice (ddy strain). 24 hours after this, a test compound was intraperitoneally administered to each animal. 4 days later, blood (0.02 ml) was collected from the suborbital plexus vein of each tumour-carrying animal. The collected sample of blood was dispersed in 9.98 ml of Cellkit Seven solution. One drop of saponin solution was added to the sample to dissolve erythrocytes and then a microcell counter was used to measure the number of leucocytes. On graph paper, the number of leucocytes was plotted on the ordinate using an arithmetic scale, and the dosage was plotted on the abscissa using a logarithmic scale to show the relationship of the dosage to the number of peripheral leucocytes, from which the value of WBC4000 viz. a value capable of giving 4000 peripheral leucocytes per mm^3 (about half of the corresponding value in normal mice) was obtained.
smiles,measurement,setting,value
"CO[C@@]12[C@H](COC(N)=O)c3c(O)c(N=NC4=NCCN4)c(C)c(O)c3N1C[C@@H]1N[C@@H]12 [Example 23, [1aS-(1aα,8β, 8aα,8bα)]-8-{[(aminocarbonyl)oxy]methyl}-4,7-dihydroxy-1,1a,2,8,8a,8b-hexahydro-6[(2""- imidazolinyl)azo]-8a-methoxy-5-methyl-azirino[2',3':3,4]pyrrolo[1,2-a]indol]",C.I. (chemotherapeutic index),[1],> 0.6
same,IC50,[2],0.162 µg/mL
same,LD50 at 336 h,[3],> 100 mg/kg
same,selectivity ratio,[4],0.5
